Source: ChEMBL document CHEMBL5543136, “Discovery of Novel Heterotricyclic Compounds as DNA-Dependent Protein Kinase (DNA-PK) Inhibitors with Enhanced Chemosensitivity, Oral Bioavailability, and the Ability to Potentiate Cancer Immunotherapy” (J Med Chem, 2024)
The source made the active and inactive calls. The calls are words filed in the database; no cut-off is given here.

Tests used:
[1] = system: B16-F10; experiment: Immunomodulatory activity in mouse B16-F10 cells implanted in C57BL/6 mouse assessed as percentage of CD3 positive CD4 positive cells in tumor at 10 mg/kg, ip QD co-administered with SWS1 for 13 days by flow cytometric analysis (reference value: 0.86%); assay type: functional; conditions: time 13 day
[2] = Toxicity in C57BL/6 mouse implanted with mouse B16-F10 cells assessed as change in kidney histopathology at 10 mg/kg, ip administered once daily for 13 days by H&E staining based analysis; assay type: organism-based; conditions: in vivo, 312 h, time 13 day
[3] = Toxicity in C57BL/6 mouse implanted with mouse B16-F10 cells assessed as change in liver histopathology at 10 mg/kg, ip administered once daily for 13 days by H&E staining based analysis; assay type: organism-based; conditions: in vivo, 312 h, time 13 day
[4] = system: B16-F10; experiment: Immunomodulatory activity in mouse B16-F10 cells implanted in C57BL/6 mouse assessed as percentage of CD3 positive CD8 positive cells in tumor at 10 mg/kg, ip QD co-administered with PD-L1 antibody for 13 days by flow cytometric analysis (reference value: 0.99%); assay type: functional; conditions: time 13 day
[5] = Half-life in male Sprague-Dawley rat at 2 mg/kg, iv measured after 48 hrs by LC-MS/MS analysis; assay type: ADME, organism-based; conditions: in vivo
[6] = system: CT26; experiment: Antitumor activity against mouse CT26 cells implanted in BALB/c mouse assessed as reduction in tumor weight at 10 mg/kg, ip administered once daily for 21 days relative to control; assay type: functional; parameters: scale not given: the % may be the effect or the level left; conditions: time 21 day
[7] = system: Jurkat; experiment: Antiproliferative activity against human Jurkat cells assessed as reduction in cell viability incubated for 48 hrs by CCK-8 assay; assay type: functional, cell-based
[8] = system: CT26; experiment: Antiproliferative activity against mouse CT26 cells assessed as reduction in cell viability incubated for 48 hrs by CCK-8 assay; assay type: functional, cell-based; conditions: CT26, 48 h
[9] = system: B16-F10; experiment: Synergistic antiproliferative activity against mouse B16-F10 cells assessed as reduction in cell viability incubated for 48 hrs in presence of doxorubicin by CCK-8 assay; assay type: functional, cell-based; conditions: B16-F10, 48 h
[10] = Tmax in male Sprague-Dawley rat at 2 mg/kg, iv measured after 48 hrs by LC-MS/MS analysis; assay type: ADME, organism-based; conditions: in vivo
[11] = Toxicity in C57BL/6 mouse implanted with mouse B16-F10 cells assessed as effect on body weight at 10 mg/kg, ip QD co-administered with PD-L1 antibody for 13 days; assay type: organism-based; conditions: in vivo, 312 h, time 13 day
[12] = Toxicity in C57BL/6 mouse implanted with mouse B16-F10 cells assessed as change in lung histopathology at 10 mg/kg, ip administered once daily for 13 days by H&E staining based analysis; assay type: organism-based; conditions: in vivo, 312 h, time 13 day
[13] = system: Jurkat; experiment: Inhibition of DNA damage repair in human Jurkat cells assessed as reduction in gammaH2AX expression level by Western blot analysis; assay type: functional, cell-based; conditions: dose 0.1-5 µM
[14] = Toxicity in C57BL/6 mouse implanted with mouse B16-F10 cells assessed as effect on body weight at 10 mg/kg, ip QD co-administered with SWS1 for 13 days; assay type: organism-based; conditions: in vivo, 312 h, time 13 day
[15] = system: B16-F10; experiment: Antitumor activity against mouse B16-F10 cells implanted in C57BL/6 mouse assessed as tumor growth inhibition at 10 mg/kg, ip QD co-administered with PD-L1 antibody for 13 days relative to control; assay type: functional; conditions: B16-F10, 312 h, time 13 day, read-out: TGI
[16] = AUC (0 to t) in male Sprague-Dawley rat at 10 mg/kg, po measured after 48 hrs by LC-MS/MS analysis; assay type: ADME, organism-based; conditions: in vivo
[17] = system: Jurkat; experiment: Induction of cell cycle arrest in human Jurkat cells assessed as decrease in S phase cells at 1 uM incubated for 24 hrs in presence of doxorubicin by PI staining based flow cytometric analysis; assay type: functional
[18] = system: CT26; experiment: Antitumor activity against mouse CT26 cells implanted in BALB/c mouse assessed as reduction in tumor volume at 10 mg/kg, ip administered once daily for 21 days relative to control; assay type: functional; parameters: scale not given: the % may be the effect or the level left; conditions: time 21 day
[19] = system: CT26; experiment: Antitumor activity against mouse CT26 cells implanted in BALB/c mouse assessed as reduction in tumor volume by measuring tumor growth inhibition at 10 mg/kg, ip QD co-administered with doxorubicin for 21 days relative to control; assay type: functional; conditions: CT26, 504 h, time 21 day, read-out: TGI
[20] = system: B16-F10; experiment: Immunomodulatory activity in mouse B16-F10 cells implanted in C57BL/6 mouse assessed as percentage of CD3 positive CD8 positive cells in tumor at 10 mg/kg, ip administered once daily for 13 days by flow cytometric analysis (reference value: 0.99%); assay type: functional; conditions: time 13 day
[21] = system: Cell membrane; experiment: Induction of mitochondrial membrane potential loss in human Jurkat cells at 1 uM incubated for 24 hrs by JC-1 staining based flow cytometric analysis; assay type: cell membranes
[22] = Clearance in male Sprague-Dawley rat at 10 mg/kg, po measured after 48 hrs by LC-MS/MS analysis; assay type: ADME, organism-based; conditions: in vivo
[23] = system: CT26; experiment: Antitumor activity against mouse CT26 cells implanted in BALB/c mouse assessed as reduction in tumor weight by measuring tumor growth inhibition at 10 mg/kg, ip QD co-administered with doxorubicin for 21 days relative to control; assay type: functional; conditions: CT26, 504 h, time 21 day, read-out: TGI
[24] = Toxicity in BALB/c mouse implanted with mouse CT26 cells assessed as weight loss at 10 mg/kg, ip administered once daily for 21 days; assay type: organism-based; conditions: in vivo, 504 h, time 21 day
[25] = Apparent volume of distribution in male Sprague-Dawley rat at 2 mg/kg, iv measured after 48 hrs by LC-MS/MS analysis; assay type: ADME, organism-based; conditions: in vivo, read-out: Vz
[26] = system: B16-F10; experiment: Antiproliferative activity against mouse B16-F10 cells assessed as reduction in cell viability incubated for 48 hrs by CCK-8 assay; assay type: functional, cell-based; conditions: B16-F10, 48 h
[27] = system: Jurkat; experiment: Synergistic antiproliferative activity against human Jurkat cells assessed as reduction in cell viability incubated for 48 hrs in presence of doxorubicin by CCK-8 assay; assay type: functional, cell-based
[28] = Toxicity in C57BL/6 mouse implanted with mouse B16-F10 cells assessed as change in spleen histopathology at 10 mg/kg, ip administered once daily for 13 days by H&E staining based analysis; assay type: organism-based; conditions: in vivo, 312 h, time 13 day
[29] = Selectivity ratio of IC50 for antiproliferative activity against mouse B16-F10 cells to IC50 for synergistic antiproliferative activity against mouse B16-F10 cells in presence of doxorubicin; assay type: functional
[30] = Selectivity ratio of IC50 for antiproliferative activity against human Jurkat cells to IC50 for synergistic antiproliferative activity against human Jurkat cells in presence of doxorubicin; assay type: functional
[31] = Toxicity in BALB/c mouse implanted with mouse CT26 cells assessed as death at 10 mg/kg, ip QD co-administered with doxorubicin for 21 days; assay type: organism-based; conditions: in vivo, 504 h, time 21 day
[32] = AUC (0 to t) in male Sprague-Dawley rat at 2 mg/kg, iv measured after 48 hrs by LC-MS/MS analysis; assay type: ADME, organism-based; conditions: in vivo
[33] = C0 in male Sprague-Dawley rat at 2 mg/kg, iv measured after 48 hrs by LC-MS/MS analysis; assay type: ADME, organism-based; conditions: in vivo
[34] = system: Jurkat; experiment: Induction of cell cycle arrest in human Jurkat cells assessed as increase in G2/M phase cells at 1 uM incubated for 24 hrs in presence of doxorubicin by PI staining based flow cytometric analysis; assay type: functional
[35] = system: CT26; experiment: Synergistic antiproliferative activity against mouse CT26 cells assessed as reduction in cell viability incubated for 48 hrs in presence of doxorubicin by CCK-8 assay; assay type: functional, cell-based; conditions: CT26, 48 h

Cc1cc2cccnc2cc1Nc1ncc2c(n1)N(C1CCOCC1)Cc1nncn1-2
Activity [1]: 4.02% | Activity [2]: Non-Toxic | Activity [3]: Non-Toxic | Activity [4]: 5.17% | half-life [5]: 60 min | Activity [6]: 30.8% | IC50 [7]: 0.6 µM | IC50 [8]: 4.1 µM | IC50 [9]: 4.9 µM | Tmax [10]: 4.98 min | Activity [11]: Non-Toxic | Activity [12]: Non-Toxic | inhibition [13]: Dose-Dependent Effect | Activity [14]: Non-Toxic | inhibition in vivo at 10 mg/kg [15]: 60.5% | AUC(0-t) at 48 h [16]: 0.95 µg·h/mL | Activity [17]: Active | Activity [18]: 32.1% | inhibition in vivo at 10 mg/kg [19]: 59.5% | Activity [20]: 1.12% | Activity [21]: inactive | CL/F [22]: 12.6 L/h/kg | inhibition in vivo at 10 mg/kg [23]: 50.2% | Activity [24]: Non-Toxic | Vd [25]: 4.7 L/kg | IC50 [26]: 10.3 µM | IC50 [27]: 0.02 µM | Activity [28]: Non-Toxic | Ratio IC50 [29]: 2.1 | Ratio IC50 [30]: 30 | Activity [31]: Non-Toxic | AUC(0-t) at 48 h [32]: 0.604 µg·h/mL | C0 at 48 h [33]: 1 µg/mL | Activity [34]: Active | IC50 [35]: 9.7 µM
